Assay results from ChEMBL document CHEMBL6083180, “Design, synthesis, and biological activity of D-bishomo-1α,25-dihydroxyvitamin D3 analogs and their crystal structures with the vitamin D nuclear receptor” (Eur J Med Chem, 2024).
Calls of active or inactive are those of the source. The rule behind the calls is not given here.

Experiments:
NCI-H226 [1] = experiment: Antiproliferative activity against human NCI-H226 cells at 1000 nM incubated for 72 hrs by SRB assay relative to control; assay type: functional
MV4-11 [2] = experiment: Antiproliferative activity against human MV4-11 cells at 1000 nM incubated for 72 hrs by MTT assay relative to control; assay type: functional
[3] = Antiproliferative activity against human LUDLU-1 cells at 1000 nM incubated for 72 hrs by SRB assay relative to control; assay type: functional
HL-60 [4] = experiment: Antiproliferative activity against human HL-60 cells at 100 nM incubated for 72 hrs by MTT assay relative to control; assay type: functional
HCC4006 [5] = experiment: Antiproliferative activity against human HCC4006 cells assessed as inhibition of cell proliferation at 10 nM incubated for 72 hrs by SRB assay relative to control; assay type: functional
[6] = Antiproliferative activity against human LUDLU-1 cells at 100 nM incubated for 72 hrs by SRB assay relative to control; assay type: functional
NCI-H226 [7] = experiment: Antiproliferative activity against human NCI-H226 cells at 100 nM incubated for 72 hrs by SRB assay relative to control; assay type: functional
HL-60 [8] = experiment: Antiproliferative activity against human HL-60 cells at 1000 nM incubated for 72 hrs by MTT assay relative to control; assay type: functional
MV4-11 [9] = experiment: Antiproliferative activity against human MV4-11 cells at 100 nM incubated for 72 hrs by MTT assay relative to control; assay type: functional
HCC4006 [10] = experiment: Antiproliferative activity against human HCC4006 cells assessed as inhibition of cell proliferation at 100 nM incubated for 72 hrs by SRB assay relative to control; assay type: functional
HCC4006 [11] = experiment: Antiproliferative activity against human HCC4006 cells assessed as inhibition of cell proliferation at 1 nM incubated for 72 hrs by SRB assay relative to control; assay type: functional
HCC4006 [12] = experiment: Antiproliferative activity against human HCC4006 cells assessed as inhibition of cell proliferation at 1000 nM incubated for 72 hrs by SRB assay relative to control; assay type: functional
Rattus norvegicus [13] = experiment: Induction of calcium transport in intestine of vitamin D-deficient Sprague-Dawley rat at 780 pmol, ip administered daily for 4 days; assay type: functional, organism-based; details: time 4.0 day
MV4-11 [14] = experiment: Effect on cell cycle distribution in human MV4-11 cells assessed as accumulation at G0/G1 phase at 100 nM incubated for 72 hrs; assay type: functional, cell-based
MV4-11 [15] = experiment: Effect on cell cycle distribution in human MV4-11 cells assessed as accumulation at G0/G1 phase at 10 nM incubated for 72 hrs; assay type: functional, cell-based
MDA-MB-231 = experiment: Antiproliferative activity against human MDA-MB-231 cells incubated for 72 hrs by SRB assay; assay type: functional, cell-based
MV4-11 [16] = experiment: Upregulation of CD14 expression in human MV4-11 cells at 10 nM incubated for 72 hrs; assay type: functional, cell-based
Rattus norvegicus [17] = experiment: Induction of calcium mobilization in bone of vitamin D-deficient Sprague-Dawley rat at 2340 pmol, ip administered daily for 4 days; assay type: functional, organism-based; details: Bone element, time 4.0 day
MCF7 = experiment: Antiproliferative activity against human MCF7 cells at 100 nM incubated for 72 hrs by SRB assay relative to control; assay type: functional
ROS 17/2.8 = experiment: Induction of transcriptional activity in rat ROS 17/2.8 cells transfected with CYP24 incubated for 16 hrs by Luciferase reporter gene assay; assay type: functional, cell-based
HCC4006 [18] = experiment: Antiproliferative activity against human HCC4006 cells incubated for 72 hrs by SRB assay; assay type: functional, cell-based; details: HCC4006, 72 h
MV4-11 [19] = experiment: Effect on cell cycle distribution in human MV4-11 cells assessed as accumulation at G0/G1 phase at 1000 nM incubated for 72 hrs; assay type: functional, cell-based
CAL-51 = experiment: Antiproliferative activity against human CAL-51 cells incubated for 72 hrs by SRB assay; assay type: functional, cell-based
MV4-11 [20] = experiment: Upregulation of CD11b expression in human MV4-11 cells at 10 nM incubated for 72 hrs; assay type: functional, cell-based
MCF-10A = experiment: Antiproliferative activity against human MCF-10A cells incubated for 72 hrs by SRB assay; assay type: toxicity, cell-based
MV4-11 [21] = experiment: Effect on cell cycle distribution in human MV4-11 cells assessed as decrease in accumulation at G2/M phase at 10 to 1000 nM incubated for 72 hrs; assay type: functional, cell-based; details: dose 10-1000 nM
Rattus norvegicus [22] = experiment: Induction of calcium mobilization in bone of vitamin D-deficient Sprague-Dawley rat at 780 pmol, ip administered daily for 4 days; assay type: functional, organism-based; details: Bone element, time 4.0 day
Rattus norvegicus [23] = experiment: Induction of calcium transport in intestine of vitamin D-deficient Sprague-Dawley rat at 260 pmol, ip administered daily for 4 days; assay type: functional, organism-based; details: time 4.0 day
NCI-H1650 = experiment: Antiproliferative activity against human NCI-H1650 cells harboring EGFR mutation incubated for 72 hrs by SRB assay; assay type: functional, cell-based
NCI-H1975 = experiment: Antiproliferative activity against human NCI-H1975 cells harboring EGFR mutation incubated for 72 hrs by SRB assay; assay type: functional, cell-based
MV4-11 [24] = experiment: Antiproliferative activity against human MV4-11 cells at 1 nM incubated for 72 hrs by MTT assay relative to control; assay type: functional
MV4-11 [25] = experiment: Antiproliferative activity against human MV4-11 cells at 10 nM incubated for 72 hrs by MTT assay relative to control; assay type: functional

Row | Compound | inhibition at 1 µM (MV4-11 [2]) [%] | inhibition at 0.1 µM (HL-60 [4]) [%] | inhibition at 0.01 µM (HCC4006 [5]) [%] | inhibition at 1 µM (HL-60 [8]) [%] | inhibition at 0.1 µM (MV4-11 [9]) [%] | inhibition at 0.001 µM (HCC4006 [11]) [%] | Activity (Rattus norvegicus [13]) | Activity (MV4-11 [14]) | Activity (MV4-11 [15]) | Activity (MDA-MB-231) | Activity (MV4-11 [16]) | Activity (Rattus norvegicus [17]) | inhibition at 0.1 µM (MCF7) [%] | Activity (ROS 17/2.8) | IC50 (HCC4006 [18]) [nM] | Activity (MV4-11 [19]) | Activity (CAL-51) | Activity (MV4-11 [20]) | Activity (MCF-10A) | Activity (MV4-11 [21]) | also measured
1 | C=C1/C(=C\C=C2/CCC[C@]3(C)[C@@H]([C@H](C)CCCC(C)(C)O)CC[C@@H]23)C[C@@H](O)C[C@@H]1O [CALCITRIOL] | 48.8 | 35.9 | 30.4 | 54.9 | 39.8 | 10.1 |  |  |  |  |  |  |  |  |  |  |  |  |  |  | inhibition at 1 µM (NCI-H226 [1]): 10%; inhibition at 1 µM [3]: 10%; inhibition at 0.1 µM [6]: 15%; inhibition at 0.1 µM (NCI-H226 [7]): 15%; inhibition at 0.1 µM (HCC4006 [10]): 14%; inhibition at 1 µM (HCC4006 [12]): 17%
2 | C[C@H](CCCC(C)(C)O)[C@@H]1CCCC[C@H]2/C(=C/C=C3C[C@@H](O)C[C@H](O)C3)CCC[C@@]21C | 31.2 | 17.9 |  | 24.2 | 25.3 |  | inactive | Active | Active | inactive | Active; Exhibited Highest Expression | inactive | 30.8 | Active; Exhibited Equal Or Slightly Less Potency Than Calcitriol | 45.2 | Active | inactive | Active | Non-toxic | Active | 
3 | C[C@H](CCCC(C)(C)O)[C@@H]1CCCC[C@H]2/C(=C/C=C3C[C@@H](O)C(=CCCO)[C@H](O)C3)CCC[C@@]21C | 32 | 22.1 | 39.1 | 27.5 | 25.5 | 37.5 |  |  | Active | inactive | Active |  | 21.3 | Active; Exhibited Higher Potency Than Calcitriol |  |  | inactive | Active |  | Active | Activity (Rattus norvegicus [22]): Active; Most Potent Compound And Equal In Activity To Calcitriol; Activity (Rattus norvegicus [23]): Active; Most Potent Compound And Equal In Activity To Calcitriol
4 | C=C1[C@H](O)CC(=C/C=C2\CCC[C@@]3(C)[C@H]2CCCC[C@H]3[C@H](C)CCCC(C)(C)O)C[C@H]1O | 50 | 35 | 44.8 | 47.6 | 32.6 | 39.1 |  | Active |  | inactive | Active | Active; Second Most Potent Compound But Exhibited Less Activity Than Calcitriol | 31 | Active; Exhibited Higher Potency Than Calcitriol | 27.7 |  | inactive | Active; Exhibited Highest Expression | Non-toxic | Active | Activity (NCI-H1650): Active; Maintained Its Activity At Constant Level In Tested Concentration But Without Statistical Significance For Lowest Concentrations; Activity (NCI-H1975): Active; Maintained Its Activity At Constant Level In Tested Concentration But Without Statistical Significance For Lowest Concentrations; Activity (Rattus norvegicus [23]): Active; Second Most Potent Compound But Exhibited Less Activity Than Calcitriol
5 | C=C1/C(=C\C=C2/CCC[C@@]3(C)[C@H]2CCCC[C@H]3[C@H](C)CCCC(C)(C)O)C[C@@H](O)C[C@@H]1O | 42.8 | 17.1 |  | 39.7 | 44.2 |  | inactive | Active | Active | inactive | Active |  | 37.9 | Active; Exhibited Higher Potency Than Calcitriol | 49.6 |  | inactive | Active |  | Active | Activity (Rattus norvegicus [22]): inactive; inhibition at 0.001 µM (MV4-11 [24]): 23.7%; inhibition at 0.01 µM (MV4-11 [25]): 41%
6 | CC1[C@H](O)CC(=C/C=C2\CCC[C@@]3(C)[C@H]2CCCC[C@H]3[C@H](C)CCCC(C)(C)O)C[C@H]1O (some centres undefined) | 29.7 | 20.5 |  | 43.8 | 39.7 |  | inactive |  |  | inactive | inactive | inactive | 29 | Not active; Exhibited Equal Or Slightly Less Potency Than Calcitriol; Exhibited Least Activity | 82.6 | Active | inactive | inactive |  | Active | 
